Laboratory results as given in publication PMC11472313, “Development of Fragment-Based Inhibitors of the Bacterial Deacetylase LpxC with Low Nanomolar Activity” (Journal of Medicinal Chemistry, 2024).
Values joined by “and” are separate entries in the source; they are usually repeats but may differ in a detail not shown here. Equal values may be shown once.

How the values were obtained:
[1] = biological target: T1, TACE (ADAM-17) (Homo sapiens, UniProt P78536); test: TACE (ADAM-17) inhibitor screening kit; assay type: biochemical; settings: for inhibition at 20 µM: read-out: TACE (% inhibition at 20 μM)
T1 construct: purchased Sigma-Aldrich (Saint Louis, MO)
T1 sequence (P78536 215-824, species assumed): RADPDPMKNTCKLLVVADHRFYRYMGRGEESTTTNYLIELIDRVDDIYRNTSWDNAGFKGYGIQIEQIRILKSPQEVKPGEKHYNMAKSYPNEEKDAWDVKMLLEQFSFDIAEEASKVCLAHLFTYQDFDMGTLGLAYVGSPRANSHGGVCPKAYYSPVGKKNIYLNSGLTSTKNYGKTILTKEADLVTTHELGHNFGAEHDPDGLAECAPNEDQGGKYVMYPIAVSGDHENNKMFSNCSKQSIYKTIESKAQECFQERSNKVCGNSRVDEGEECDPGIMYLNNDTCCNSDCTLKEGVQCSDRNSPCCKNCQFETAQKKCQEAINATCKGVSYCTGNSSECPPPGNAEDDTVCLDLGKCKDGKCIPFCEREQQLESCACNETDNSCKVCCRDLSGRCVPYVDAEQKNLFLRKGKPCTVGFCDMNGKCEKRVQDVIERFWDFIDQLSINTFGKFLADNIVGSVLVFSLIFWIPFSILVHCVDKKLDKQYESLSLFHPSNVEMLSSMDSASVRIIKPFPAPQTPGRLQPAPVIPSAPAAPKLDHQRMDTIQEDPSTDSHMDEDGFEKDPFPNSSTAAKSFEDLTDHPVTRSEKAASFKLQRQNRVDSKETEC
Procedure: Since LpxC and LasB are zinc-dependent enzymes, we investigated potential off-target activity of the three frontrunners on mammalian zinc-dependent enzymes. Our panel comprised three representative matrix-metalloproteases (MMP1–3) and tumor necrosis factor-α converting enzyme (TACE, also known as ADAM17) (Table 6).
Purification of LasB from P. aeruginosa PA14 supernatant and the subsequent performance of the FRET-based in vitro inhibition assay was performed as described previously.[66] The TACE (ADAM-17) inhibitor screening kit was purchased from Sigma-Aldrich (Saint Louis, MO). MMPs 1–3 along with the SensoLyte 520 Generic MMP Activity Kit Fluorimetric were purchased from AnaSpec (Fremont, CA, USA). The assays were performed according to the guidelines of the respective manufacturer. Fluorescence signals were measured using a CLARIOstar plate reader (BMG Labtech, Ortenberg, Germany).

[2] = biological target: T2, E. coli LpxC C63A (Escherichia coli, UniProt P0A725, C63A); test: fluorescence-based E. coli LpxC C63A enzyme inhibition assay; assay type: biochemical; settings: Ki E. coli LpxC C63A, from IC50 via Cheng–Prusoff
T2 construct: made in house; host or cells: E. coli BL21(DE3)
T2 sequence (P0A725 whole entry C63A): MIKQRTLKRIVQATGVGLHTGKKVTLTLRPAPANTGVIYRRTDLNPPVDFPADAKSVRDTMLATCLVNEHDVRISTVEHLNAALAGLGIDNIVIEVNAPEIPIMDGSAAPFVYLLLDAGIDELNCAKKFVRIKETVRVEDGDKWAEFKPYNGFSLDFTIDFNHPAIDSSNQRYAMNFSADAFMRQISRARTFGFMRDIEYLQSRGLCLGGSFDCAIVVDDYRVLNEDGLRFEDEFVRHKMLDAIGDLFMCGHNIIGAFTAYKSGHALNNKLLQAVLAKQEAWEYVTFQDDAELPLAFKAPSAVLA
Outline: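 Purified E. coli LpxC C63A (15 nM) was incubated with 25 µM UDP-3-O-[(R)-3-hydroxymyristoyl]-GlcNAc in MES pH 6.0 buffer (2% DMSO) for 30 min at 37 °C. Compounds ranged from 20 nM to 20 µM. Product was derivatized with o-phthaldialdehyde/2-mercaptoethanol and read by fluorescence (ex 340/em 460), with IC50 converted to Ki via Cheng–Prusoff.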

[3] = microsomal metabolic stability, human; assay type: in vitro ADME; settings: human liver microsomes; for half-life: read-out: microsomal metabolic stability t1/2
Procedure: Also, the plasma stability of the compounds in mouse plasma was generally low with half-lives between 22.9 min [(S)-13h] and 43.1 min [(S)-13j].
The microsomal metabolic stability assay as well as the plasma protein binding assay were conducted as described previously.[78]
Samples were analyzed using an Agilent 1290 Infinity II HPLC system coupled to an AB Sciex QTrap 6500plus mass spectrometer. LC conditions were as follows: column: Agilent Zorbax Eclipse Plus C18, 50 × 2.1 mm, 1.8 μm; temperature: 30 °C; injection volume: 5 μL per sample; flow rate: 700 μL min^–1. Samples were run under acidic conditions. Solvents: (A) water + 0.1% formic acid; (B) 95% acetonitrile/5% H2O + 0.1% formic acid. Gradient elution: (A %): 0–0.1 min: 99%, 0.1–3.5 min: gradient from 99 to 50%, 3.5–3.8 min: gradient from 50 to 0%, 3.8–4.7 min: gradient from 0 to 99%. Mass transitions for controls and compounds are depicted in Table S3.

[4] = test system: E. coli D22; test: disc diffusion assay; assay type: cell-based; settings: 0.15 μmol per 6 mm disc
[5] = test system: E. coli BL21(DE3); test: disc diffusion assay; assay type: cell-based; settings: 0.15 μmol per 6 mm disc
[6] = stability in mouse plasma; assay type: in vitro ADME; settings: 1 μM compound, pooled CD-1 mouse plasma; for half-life at 1 μM: CD-1, mouse, pooled plasma, read-out: mouse plasma stability t1/2
Procedure: To determine stability in mouse plasma, the compound (1 μM) was incubated with pooled CD-1 mouse plasma (Neo Biotech, Nanterre, France). Samples were taken at defined time points by mixing aliquots with 4 volumes of acetonitrile containing internal standard (125 nM diphenhydramine). Samples were stored on ice until the end of the incubation, and the precipitated protein was removed by centrifugation (15 min, 4 °C, 4000g, 2 centrifugation steps). Concentration of the remaining test compound at the different time points was analyzed by HPLC–MS/MS (TSQ Quantum Access MAX, Thermo Fisher, Dreieich, Germany). The plasma stability of procain, propantheline, and diltiazem were determined in parallel to confirm enzymatic activity.

[7] = biological target: T3, LasB (Pseudomonas aeruginosa, UniProt Q02RJ6); test: FRET-based LasB in vitro inhibition assay; assay type: biochemical, P. aeruginosa PA14; settings: for inhibition at 20 µM: read-out: LasB Inhibition at 20 μM
T3 construct: The elastase LasB of P. aeruginosa is a secreted metalloprotease; endogenous in cells; host or cells: P. aeruginosa PA14 culture supernatant
T3 sequence (Q02RJ6 198-498): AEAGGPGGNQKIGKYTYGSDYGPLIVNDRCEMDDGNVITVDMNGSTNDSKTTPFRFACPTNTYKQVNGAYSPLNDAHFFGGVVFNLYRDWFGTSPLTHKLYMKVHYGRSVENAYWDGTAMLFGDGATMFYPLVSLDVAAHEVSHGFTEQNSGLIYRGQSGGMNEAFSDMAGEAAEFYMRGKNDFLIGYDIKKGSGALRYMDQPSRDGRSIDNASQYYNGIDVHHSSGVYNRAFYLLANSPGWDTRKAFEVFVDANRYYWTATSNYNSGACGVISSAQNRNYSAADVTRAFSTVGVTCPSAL
Outline: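 FRET-based inhibition assay using LasB purified from P. aeruginosa PA14 culture supernatant; fluorescence read-out.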

Structure (SMILES)	inhibition at 100 µM ([1]; 100 μM (as printed in text)) [%]	inhibition at 20 µM [1] [%]	Ki [2]	microsomal CLint [3] [µL/min/mg]	half-life [3] [min]	Inhibition zone E. coli D22 [4] [mm]	Inhibition zone E. coli BL21(DE3) [5] [mm]	mouse plasma stability t1/2 [6] [min]	half-life at 1 μM [6] [min]	LasB Inhibition at 20 μM [7]	inhibition at 20 µM [7] [%]	IC50 [1] [nM]	selectivity factor for TACE ([1]; TACE versus LpxC)
O=C(NC[C@H](OCc1ccc(C#Cc2ccc(CN3CCOCC3)cc2)cc1)C(=O)NO)c1ccc2[nH]ccc2c1 [(S)-13j]	38	38 ± 5	9.5 nM and 9.45 nM	< 23	> 60	29.0 ± 1.6	20.0 ± 1.0	43 ± 13	43.1	little to no inhibitory activity	< 10		
O=C(NC[C@H](OCc1ccc(C#Cc2ccc(CN3CCOCC3)cc2)cc1)C(=O)NO)c1cc[nH]n1 [(S)-13l]		81 ± 2	80.9 ± 9 nM	< 23	> 60	>30	24.7 ± 0.6		24.2 ± 5	little to no inhibitory activity	11.6 ± 0.7	5400	8.4
